# From article PMC7810383 (Science Advances, 2021)
# Peptide text beside a SMILES is read from it. * marks the point of attachment. Cbz = O=C(OCc1ccccc1)*; CH2F = FC*
# Assays:
# [1] = test system: BIRC2; type: cell-based, human
# [2] = test system: PARP cleavage in HeLa cells; type: cell-based, human; conditions: NAA10 RNAi 72 hours, Z-VAD-FMK 40 μM, anti-PARP immunoblot
# [3] = test system: XIAP; type: biochemical, human
# [4] = test system: IAPs (BIRC2, BIRC3, XIAP, BIRC6); type: binding, human
# [5] = test system: hGID/CTLH complex; type: binding, human; conditions: peptide on streptavidin beads, HeLa lysate, quantitative MS
Molecule,Ubiquitination of streptavidin-bound peptide by XIAP (anti-ubiquitin immunoblot) [3],"IAP enrichment in peptide pull-down, Nt-free versus Nt-Ac peptide [4]",other results
CN[C@@H](C)C(=O)N[C@H](C(=O)N1CCC[C@H]1c1nc(C(=O)c2ccc(F)cc2)cs1)C1CCCCC1 [LCL161],–,–,BIRC2 levels [1]: IAP depletion
"COC(=O)C[C@H](NC(=O)[C@H](C)NC(=O)[C@@H](NC(=O)OCc1ccccc1)C(C)C)C(=O)CF [Z-VAD, Benzyloxycarbonyl-Val-Ala-Asp-fluoromethyl ketone] (Cbz-Val-Ala-Asp(OMe)-CH2F)",–,–,PARP cleavage induced by NatA RNAi [2]: inhibited
Ac or H-AAAGAAATHLKK-K-(Biotin)-NH2 [PIGS Nt-Ac biotinylated peptide],not ubiquitinated,–,–
Ac or H-AQFAFESDLHSLLQL-PEG-K(Biotin)-CONH2 [CDC20 Nt-Ac biotinylated peptide],–,no enrichment,–
H-AAAGAAATHLKK-K-(Biotin)-NH2 [PIGS Nt-free biotinylated peptide],not ubiquitinated,no IAP enrichment,–
H-AAPEEHDSPTKK-K-(Biotin)-NH2 [DDX47 Nt-free biotinylated peptide],strongly ubiquitinated,identified IAPs as binding partners,–
H-AAPWRRWPTGKK-K-(Biotin)-NH2 [TMEM223 Nt-free biotinylated peptide],–,identified IAPs as binding partners,–
H-AISSSSCELPLVAVF-PEG-K(Biotin)-CONH2 [NIT1 Nt-free biotinylated peptide],–,strongly enriched,–
H-APPSVFAEVPQAQPV-PEG-K(Biotin)-CONH2 [GOT1 Nt-free biotinylated peptide],–,no IAP enrichment,–
H-AQFAFESDLHSLLQL-PEG-K(Biotin)-CONH2 [CDC20 Nt-free biotinylated peptide],–,robust interactions,–
H-ASVGECPAPVKK-K-(Biotin)-NH2 [ATP5J2 Nt-free biotinylated peptide],–,identified IAPs as binding partners,–
"H-ATPFQEGLRTFKKK-K(Biotin)-NH2 [CASP9 Nt-free biotinylated peptide, reference compound]",levels that were comparable,preferential binding partners,–
H-AVGKNKRLTKK-K-FITC [RPS3A Nt-free peptide],–,no IAP enrichment,–
H-AVPAALILREKK-K(Biotin)-NH2 [COMMD10 Nt-free biotinylated peptide],strongly ubiquitinated,strongly enriched,hGID/CTLH complex enrichment in peptide pull-down [5]: also enriched
"H-AVPIAQKSEPFKKK-K(Biotin)-NH2 [DIABLO Nt-free biotinylated peptide, reference compound]",levels that were comparable,preferential binding partners,–
"H-AVPSPPPASPKK-K(Biotin) [HTRA2 Nt-free biotinylated peptide, reference compound]",–,preferential binding partners,–
H-MAVPAALILREKK-K(Biotin) [Met-COMMD10 Nt-free biotinylated peptide],–,did not enrich IAPs,–
H-MDDDIAALVVKKK-PEG-(Biotin) [ACTB Nt-free biotinylated peptide],–,did not enrich IAPs,–
H-MEELIVELRLKKK-PEG-(Biotin) [AFAP1 Nt-free biotinylated peptide],–,did not enrich IAPs,–
